Reference: patent US20140179681A1, “METHODS AND COMPOSITIONS OF TARGETED DRUG DEVELOPMENT” (priority 2010, published 2014)
Several values for one entry are separate records, joined by “and”; a condition that tells them apart may be missing. Equal entries are not always repeated. Structures can show the parent of a compound that is named as a salt. Where two headings read alike, the source gives them in different places.

Legend:
[1] = biological target: T1, EGFR (Homo sapiens, UniProt P00533); test: EGFR in-cell Western (ICW) screening protocol (EGFR inhibition assay); type: cell-based; design: ICW 1 / ICW 2 / ICW Avg: unit not given here; conditions: for ICW assay: Table 10; for ICW Avg / ICW 1 / ICW 2: ICW assay; for ICW Avg: average of runs 1 and 2; for ICW 1: run 1; for ICW 2: run 2
T1 construct: host or cells: A431
Description: The following example describes general EGFR in-cell Western (ICW) screening protocol. Methods are according to Chen et al. (2005) Analytical Biochemistry 338, 136-142 (incorporated herein by reference), except as otherwise noted.
Cell Plates: A431 cells (ATCC # CRL-1555) were grown in Dulbecco's Modified Eagle Medium (DMEM; ATCC #30-2002) supplemented with 10% fetal bovine serum, 105 units/ml pen/strep (Invitrogen #15140155) and 2.1 mM L-glutamine (ATCC #30-2214). Cells were seeded into 96 well tissue culture plates (BD Falcon #353948) at a density of 30,000 cells per well and incubated at 37° C. with 5% CO2 overnight. Two cell plates were prepared for each compound plate.
Serum Starvation: The cells were serum starved prior to compound addition. The media was removed by aspiration and the cells washed with PBS (200 μl/well; Invitrogen #20012-027). The PBS was removed by aspiration and replaced with 200 μl of DMEM (ATCC #30-2002) supplemented with 105 units/ml pen/strep (Invitrogen #15140155) and 2.1 mM 1-glutamine (ATCC #30-2214). The cell plates were incubated at 37° C./5% CO2 for 2 hours.
Compound Plate Preparation: The test compounds were solvated in 100% DMSO (Sigma #472301-2L) at a concentration of 25 mM. Compounds found not to be completely soluble in 100% DMSO at 25 mM were diluted to 10 mM with 100% DMSO and TFA (Fluka #91699) added to a final concentration of 0.2%. 40 μl of test compound was added to the appropriate well of a 96 well plate (Falcon #351190). As controls, 6 μM EGFR kinase inhibitor PD168393 (EMD/Calbiochem #513033) in 100% DMSO and DMSO alone were added to various wells. Prepared compound plates were stored at RT prior to use and at 4° C. long term.
Compound Dilution Plate Preparation: 250 μl of DMEM supplemented with 1 mg/ml BSA (Sigma A3059-10G) was added to the appropriate wells of a 96 well plate to prepare the compound dilution plates. Using a multichannel pipettor, 1.25 μl of compound from the compound plate was transferred into the compound dilution plate.
Compound Addition: The starve media was removed from the cell plates by aspiration. Using a multichannel pipettor, the compound dilution plates were mixed by pipetting up and down three times. 50 μl of mixed, diluted compound was added to each of two rows/columns on each of two cell plates. The cell plates with compound were incubated at 37° C./5% CO2 for 4 hours.
EGF Addition: 20 ng/ml EGF (Upstate #01-107) was prepared in DMEM supplemented with 1 mg/ml BSA. 50 μl of 20 or 0 ng/ml EGF was added to the appropriate wells without the removal of compound. The compound and EGF were mixed by pipetting up and down three times. The plates were incubated at 37° C./5% CO2 for 10 min. In some screening assays the final concentration of EGF used for simulation was 6.6, or 12.5 ng/ml rather than 10 ng/ml.
Fixation and Triton Washing: The EGF+compound was removed by aspiration and 150 μl of freshly prepared Fixation Solution (1×PBS, Sigma P3813-10PK, and 4% Formaldehyde, Pierce #28908) was immediately added. The plates were incubated at RT for 20 min without shaking. The Fixation Solution was removed by aspiration and the plates washed four times with 200 μl each of Triton Wash Solution (1×PBS, Sigma P3813-10PK, and 0.1% Triton X-100, T8787-50ML) for 5 min with gentle shaking.
Blocking and Probing: Following the last Triton Wash, the plates were blocked for 1.5 h at RT with shaking using 150 μl of Odyssey Blocking Buffer (LI-COR #927-40000). The block was removed by aspiration and 50 μl of diluted primary Ab mix was added. The plates were incubated at 4° C. overnight with gentle shaking. The plates were washed five times with 200 μl of PBST (1×PBS, Sigma P3813-10PK, and 0.1% Tween-20, Sigma P9416-50ML) for 5 min each with shaking 50 μl of diluted secondary Ab mix was added and the plates incubated at RT for 1 h with shaking. The plates were washed 5× with 200 μl of PBST for 5 min each with shaking. […]

[2] = system: MDBK line; test: MTT Cell Proliferation Assay, MDBK cells; type: cell-based, bovine
From the text: (§1) The following example describes the MTT Cell Proliferation Assay.
(§2) The MTT Cell Proliferation Assay is a colorimetric assay system that measures the reduction of the tetrazolium salt MTT (3-(4,5-dimethylthiazol-2-yl)-2,5-diphenyltetrazolium bromide) into insoluble formazan crystals, produced by the mitochondria of viable cells. […] The color can then be quantified by spectrophotometric means. Among the applications for the method are drug sensitivity, cytotoxicity, response to growth factors, and cell activation. The reduction of tetrazolium salts is now recognized as a safe, accurate alternative to radiometric testing.
(§3) Two replicates on each cell plate and 2 duplicate plates gave 4 individual replicates of each concentration, in each cell line. Concentrations were diluted in 100% DMSO from 25 mM stocks.
(§4) Twelve 96 well plates of each cell line were plated. Plating was done by dislodging cells as in passage protocol, counting on a hemocytometer, re-suspending in standard growth media, and plating using a multichannel pippetor.
(§5) 16 μl of 25 mM stock+34 μl DMSO=8 mM starting concentrations, and serial diluted as with test compounds in same plate. […] Two replicates of each concentrations was run on each cell plate. All compound addition and cell treatments were done using aseptic technique under a laminar flow aseptic hood.
(§6) Control: 0.5% DMSO in treatment media was used as the control.
(§7) MTT dye (Thiazolyl Blue Tetrazolium Bromide, Sigma cat #M5655) stock was prepared in bulk and stored at 4° C. for use: 5 mgs/ml sterile PDS, shielded from light. 4 ul of this stock per 100 uls treatment media per well was used.
(§8) Plates were incubated overnight prior to treatment, with treatment day=Day 0. Compound treatments were prepared prior to washing cells to minimize time cells were dry at room temperature after final aspiration. Compounds were diluted in 100% DMSO in 96 well polypropylene plates: 40 μl 25 mM stock+10 μl DMSO=20 mM; 20 μl of 20 mM+30 μl DMSO=8 mM; 20 μl of 8 mM+30 μl DMSO=3.2 mM; 20 μl of 3.2 mM+30 μl DMSO=1.3 mM; 20 μl of 1.3 mM+30 μl DMSO=0.51 mM.
(§9) 5.0 μl/ml were added to treatment media, in sterile, 2.2 ml deep well plates=0.5% dmso final. Ten μl of each dmso concentration was added to 2.0 ml of treatment media and then mixed using a 1200 μl multichannel pipettor. Cell plates were treated from the deep well plates. Treatment media was standard growth media containing 0.5% FBS and standard additions. This reduced FBS concentration allowed for a slower growth rate in cells.
(§10) Media was aspirated from cell plates, and washed with 200 μl/well sterile PBS. Aspirated PBS wash, and cell plates were treated with 200 μl of compound/treatment media per well, and incubated at 37° C., 5% CO2 for 3 days.
(§11) Prior to harvesting, visual observations were made under an inverted microscope. Plates were harvested by: aspirating the growth media; adding back MTT dye/100 μl treatment media; and incubating plates at 37° C. for 1 hour. MTT dye was aspirated. 100 μl/well dmso was added, and then shaken on a Bellco plate shaker for 5 minutes, at 4.5 setting.
(§12) Plates were read in a Tecan Sunrize UV plate reader, at 560 nm. Settings: Read mode, Outside Normal 2 sec; Shake settle time 3 sec. Data is reported as % inhibition, calculated for individual plates using control values from that plate.

[3] = system: epithelial carcinoma A431 cell line; test: MTT Cell Proliferation Assay, A431 cells; type: cell-based; conditions: for MTT Assay IC50(A431/MDBK): ratio in parentheses: ratio MDBK IC50 / A431 IC50 (selectivity)
From the text: as §1, §2, §3, §4, §5, §6, §7, §8, §9, §10, §11, §12

[4] = % Inhibition of EGF dependent EGFR phosphorylation in A431 cells, compound 125 μM in assay
[5] = Bos taurus, MDBK, 72 h, Table 10, second of x/y(ratio): MDBK, three day treatment, unit not printed (doses in μM), read-out: MTT assay (second value)
[6] = Homo sapiens, A-431, 72 h, Table 10, first of x/y(ratio): A431, three day treatment, unit not printed (doses in μM), read-out: MTT assay (first value)
[7] = Bos taurus, MDBK, second value of 'a/b (c)', taken as MDBK cells, read-out: MTT Screen, second value of cell
[8] = Homo sapiens, A-431, first value of 'a/b (c)', taken as A431 cells, read-out: MTT Screen, first value of cell
[9] = Bos taurus, MDBK, MDBK cells, second value of cell, read-out: MTT Assay IC50(A431/MDBK): MDBK
[10] = Homo sapiens, A-431, A431 cells, first value of cell, read-out: MTT Assay IC50(A431/MDBK): A431
[11] = second value of 'a/b (c)', taken as MDBK cells, read-out: MTT Screen, second value of cell
[12] = first value of 'a/b (c)', taken as A431 cells, read-out: MTT Screen, first value of cell

T1 sequence (P00533 25-1210): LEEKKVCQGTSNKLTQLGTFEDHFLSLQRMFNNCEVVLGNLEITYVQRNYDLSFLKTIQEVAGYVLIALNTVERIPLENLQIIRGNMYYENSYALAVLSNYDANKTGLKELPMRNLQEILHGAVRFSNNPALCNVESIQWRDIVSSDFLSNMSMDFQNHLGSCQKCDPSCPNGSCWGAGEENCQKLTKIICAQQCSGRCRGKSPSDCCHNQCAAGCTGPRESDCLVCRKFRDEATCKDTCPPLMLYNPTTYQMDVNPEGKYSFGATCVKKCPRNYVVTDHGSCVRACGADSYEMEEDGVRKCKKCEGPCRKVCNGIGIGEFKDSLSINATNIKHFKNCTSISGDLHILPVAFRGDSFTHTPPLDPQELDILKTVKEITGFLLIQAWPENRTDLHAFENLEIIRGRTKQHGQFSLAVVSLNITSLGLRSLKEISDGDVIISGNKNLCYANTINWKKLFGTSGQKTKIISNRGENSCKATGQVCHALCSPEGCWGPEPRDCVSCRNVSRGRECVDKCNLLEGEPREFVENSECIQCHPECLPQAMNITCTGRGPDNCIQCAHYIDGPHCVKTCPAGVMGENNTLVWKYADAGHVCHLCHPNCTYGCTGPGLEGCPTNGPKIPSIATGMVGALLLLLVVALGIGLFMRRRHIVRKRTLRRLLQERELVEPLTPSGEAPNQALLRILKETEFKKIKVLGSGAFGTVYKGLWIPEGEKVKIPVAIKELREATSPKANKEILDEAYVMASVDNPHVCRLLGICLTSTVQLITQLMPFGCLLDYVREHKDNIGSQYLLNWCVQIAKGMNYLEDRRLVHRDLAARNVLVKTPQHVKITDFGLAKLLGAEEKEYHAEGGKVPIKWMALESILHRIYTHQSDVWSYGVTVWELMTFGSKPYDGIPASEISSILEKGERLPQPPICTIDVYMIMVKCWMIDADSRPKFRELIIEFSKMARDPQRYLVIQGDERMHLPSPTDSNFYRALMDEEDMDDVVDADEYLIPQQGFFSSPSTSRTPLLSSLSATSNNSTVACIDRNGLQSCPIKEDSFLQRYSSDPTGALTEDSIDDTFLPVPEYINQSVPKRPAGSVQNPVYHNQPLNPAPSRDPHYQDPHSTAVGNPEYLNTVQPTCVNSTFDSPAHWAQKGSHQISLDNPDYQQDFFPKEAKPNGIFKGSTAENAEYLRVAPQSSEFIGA

| ICW assay [1, 4] | IC50 [3, 6] [µM] | ICW Avg [1] | ICW 1 [1] | ICW 2 [1] | MTT Assay IC50(A431/MDBK): ratio in parentheses [3] | Structure (SMILES) | IC50 [2, 5] [µM] | IC50 [2, 9] [µM] | further results |
| --- | --- | --- | --- | --- | --- | --- | --- | --- | --- |
| 35.1946 | 6.83 |  |  |  |  | Cc1ccc(NC(=S)Nc2ccc(S(=O)(=O)Nc3ccc(Cl)cc3)cc2)cc1 [AD4-12413] | 6.35 |  |  |
|  |  |  |  |  |  | CN(c1ccccc1)S(=O)(=O)c1ccc(NC(=S)NC(=O)/C=C/c2ccccc2)cc1 [AD4-12168] |  |  | ICW Screen (ICW Inhibition) [1]: 28.819; IC50 [2, 7]: 19.7 µM; IC50 [3, 8]: 60.5 µM; MTT Screen, first value of cell ([3]; first value of 'a/b (c)', taken as A431 cells): non- conver- gent |
|  |  | 38.61 | 48.06 | 29.15 | 0.62 | CCCCc1c(C)nc(Nc2nc(C)c3ccccc3n2)[nH]c1=O [12603 + TFA] |  | 10.1 | IC50 ([3]; A431 cells, first value of cell, read-out: MTT Assay IC50(A431/MDBK): A431): 16.2 µM |
|  |  | 60.19 | 66.95 | 53.44 | 0.82 | Cc1ccc2c(C)nc(Nc3nc(CCC(C)C)cc(=O)[nH]3)nc2c1 [11783 + TFA] |  | 15 | IC50 [3, 10]: 18.2 µM |
|  |  |  |  |  |  | Cc1cc(NS(=O)(=O)c2ccc(NC(=S)NC(=O)/C=C/c3ccccc3)cc2)no1 [AD4-12173] |  |  | ICW Screen (ICW Inhibition) [1]: 35.393; IC50 [2, 11]: 106 µM and 54 µM; IC50 [3, 8]: 37.3 µM; IC50 [3, 12]: 55.8 µM |
| 31.3476 | 9.92 |  |  |  |  | CCOc1ccccc1NC(=S)Nc1ccc(S(=O)(=O)Nc2c(C)cc(C)cc2C)cc1 [AD4-12465] | 6.54 |  |  |
|  |  | 43.72 | 50.06 | 37.38 | 3.27 | COc1ccc2nc(Nc3nc(CSc4nnnn4-c4ccccc4)cc(=O)[nH]3)nc(C)c2c1 [compound 11448] |  | 11.8 | IC50 [3, 10]: 3.45 µM |
|  |  | 32.41 | 38.43 | 26.39 | 0.52 | O=c1cc(C(F)(F)F)[nH]c(Nc2nc(-c3ccccc3)c3cc(Cl)ccc3n2)n1 [11759 + TFA] |  | 7.36 | IC50 [3, 10]: 14.2 µM |
|  |  |  |  |  |  | O=c1cc(CN2CCN(Cc3ccc4c(c3)OCO4)CC2)c2cc(Cl)c(O)cc2o1 [AD4-10618] |  |  | ICW Screen ([1]; Table 11, % Inhibition of EGF dependent EGFR phosphorylation in A431 cells, compound 125 μM in assay): −3.062; MTT Screen (second value) ([2]; Table 11, second of x/y(ratio): MDBK, unit not printed (doses in μM)): non-convergent; IC50 ([3]; Homo sapiens, A-431, 72 h, Table 11, first of x/y(ratio): A431, unit not printed (doses in μM), read-out: MTT Screen (first value)): 18.4 µM |
| 27.1482 | 19.8 |  |  |  |  | CCN(c1ccccc1)S(=O)(=O)c1ccc(NC(=S)Nc2ccccc2)cc1 [AD4-11430] |  |  | IC50 ([2]; Table 10, second of x/y(ratio): MDBK, three day treatment, unit not printed (doses in μM), read-out: MTT assay (second value)): 16.8 µM |
|  |  | 35.24 | 29.34 | 41.14 | 0.89 | CCCc1c(C)[nH]c(Nc2nc(C)c3cc(C)ccc3n2)nc1=O [compound 12661] |  | 38.2 | IC50 [3, 10]: 43.1 µM |
|  |  |  |  |  |  | O=C(NC(=S)Nc1ccc(S(=O)(=O)N2CCCCC2)cc1)C1CCC1 [AD4-12064] |  |  | ICW Screen (ICW Inhibition) [1]: 34.778; IC50 [2, 11]: 42.7 µM; IC50 [3, 12]: 47.8 µM |
| 28.3382 | 6.54 |  |  |  |  | COc1cc(NC(=S)Nc2ccc(S(=O)(=O)Nc3cc(Cl)cc(Cl)c3)cc2)cc(OC)c1 [AD4-12482] | 6.05 |  |  |
|  |  |  |  |  |  | O=C(NC(=S)Nc1ccc(S(=O)(=O)NCCc2ccccc2)cc1)C1CCCC1 [AD4-10609] |  |  | ICW Screen (ICW Inhibition) [1]: 43.828; IC50 [2, 7]: 6.34 µM; IC50 [3, 8]: 6.84 µM |
| 53.245 | 5.69 |  |  |  |  | Cc1ccc(NC(=S)Nc2ccc(S(=O)(=O)Nc3ccc(Cl)c(Cl)c3)cc2)cc1 [AD4-12438] | 5.9 |  |  |
| 51.4082 | 6.92 |  |  |  |  | O=S(=O)(Nc1ccccc1)c1ccc(NC(=S)Nc2ccc(Cl)cc2Cl)cc1 [AD4-12822] | 7.04 |  |  |
